Laboratory results: patent US7888380B2, “1,2,4-Triazolylaminoaryl (heteroaryl) sulfonamide derivatives” (Janssen Pharmaceutica, N.V., priority 2004, dated 2011)

How the values were obtained:
CDK1:Cyclin-B = target: T1, CDK1:Cyclin-B (Homo sapiens, UniProt P06493); assay: CDK1 Screening Assay (33P-ATP FlashPlate); type: biochemical; details: 10 μM ATP; >10 or >100 = less than 50% inhibition at highest concentration tested
T1 construct: purchased New England Biolabs, Beverly, Mass; 6020; host or cells: insect cells
T1 sequence (P06493 whole entry): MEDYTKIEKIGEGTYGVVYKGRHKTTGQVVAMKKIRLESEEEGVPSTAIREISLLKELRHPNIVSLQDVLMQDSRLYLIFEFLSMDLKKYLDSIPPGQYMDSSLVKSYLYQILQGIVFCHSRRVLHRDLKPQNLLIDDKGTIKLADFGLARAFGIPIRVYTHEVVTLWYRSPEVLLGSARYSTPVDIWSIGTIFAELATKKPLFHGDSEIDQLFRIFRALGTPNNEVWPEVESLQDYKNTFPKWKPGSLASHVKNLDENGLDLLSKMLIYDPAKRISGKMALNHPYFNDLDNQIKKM
T1 sequence (P14635 whole entry partner): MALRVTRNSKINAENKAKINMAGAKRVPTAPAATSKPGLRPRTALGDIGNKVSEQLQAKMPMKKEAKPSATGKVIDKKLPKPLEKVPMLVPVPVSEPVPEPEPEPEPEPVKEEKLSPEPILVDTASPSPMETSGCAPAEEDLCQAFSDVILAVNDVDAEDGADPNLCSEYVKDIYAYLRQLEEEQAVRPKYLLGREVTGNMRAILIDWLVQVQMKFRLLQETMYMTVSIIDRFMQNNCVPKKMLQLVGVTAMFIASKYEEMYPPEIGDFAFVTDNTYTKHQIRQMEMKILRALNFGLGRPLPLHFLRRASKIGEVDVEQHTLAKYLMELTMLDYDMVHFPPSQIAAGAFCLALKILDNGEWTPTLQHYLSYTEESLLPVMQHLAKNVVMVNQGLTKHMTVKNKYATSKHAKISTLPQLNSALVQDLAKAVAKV
Protocol: A kinase reaction mixture was prepared containing 50 mM Tris-HCl pH=8, 10 mM MgCl2, 0.1 mM Na3PO4, 1 mM DTT, 10 μM ATP, 0.025 μM biotinylated histone-H1 peptide substrate and 0.2 μCuries per well ^33P-γ-ATP (2000-3000 Ci/mmol). 70 μL of the kinase reaction mixture was dispensed into each well of a streptavidin coated FlashPlate™ (Cat. # SMP103, NEN, Boston, Mass.). Then 1 μL of test compound stock in 100% DMSO was added to the wells resulting in a final concentration of 1% DMSO in the reaction with a 100 μl final reaction volume.
Next, CDK1:Cyclin-B protein was diluted in 50 mM Tris-HCl pH=8.0, 0.1% BSA at a concentration of 1 ng per μL and 30 μL (30 ng enzyme per test well) was added to each well to initiate the reaction. The reaction was incubated for one hour at 30° C. At the end of the 1 h incubation, the reaction was terminated by aspirating the mixture from the plate and washing the wells twice with PBS containing 100 mM EDTA. The histone-H1 biotinylated peptide substrate became immobilized on the Flashplate™ and the incorporation of ^33P-γ-ATP was measured by reading the plate on a scintillation counter. Inhibition of the enzymatic activity of CDK1 was measured by observing a reduced amount of ^33P-γ-ATP incorporated into the immobilized peptide.
(§1) VEGF-R (vascular endothelial growth factor receptor-2) is a fusion protein containing a polyhistidine tag at the N-terminus followed by amino acids 786-1343 of the rat VEGF-R2 kinase domain (GenBank Accession #U93306). CDK1 (cyclin dependent kinase 1) was isolated from insect cells expressing both the human CDK1 catalytic subunit and its positive regulatory subunit cyclin B (New England Biolabs, Beverly, Mass., Cat. # 6020). CDK2 in complex with cyclin A is commercially available (Upstate Biotech, Lake Placid, N.Y.). The HER2 (human epidermal growth factor receptor-2) construct contains a polyhistidine tag at the N-terminus followed by 24 additional amino acids and begins at amino acid 676 followed by the remainder of the HER2 cytoplasmic domain.

VEGF-R2 kinase = target: T2, VEGF-R2 kinase (Rattus norvegicus, UniProt O08775); assay: VEGF-R2 Kinase Screening Assay; type: biochemical; details: 10 μM ATP; rat VEGF-R2 kinase domain; read-out: IC50 (μM) VEGFR
T2 construct: 6xHis (polyhistidine) (N)
T2 sequence (O08775 786-1343): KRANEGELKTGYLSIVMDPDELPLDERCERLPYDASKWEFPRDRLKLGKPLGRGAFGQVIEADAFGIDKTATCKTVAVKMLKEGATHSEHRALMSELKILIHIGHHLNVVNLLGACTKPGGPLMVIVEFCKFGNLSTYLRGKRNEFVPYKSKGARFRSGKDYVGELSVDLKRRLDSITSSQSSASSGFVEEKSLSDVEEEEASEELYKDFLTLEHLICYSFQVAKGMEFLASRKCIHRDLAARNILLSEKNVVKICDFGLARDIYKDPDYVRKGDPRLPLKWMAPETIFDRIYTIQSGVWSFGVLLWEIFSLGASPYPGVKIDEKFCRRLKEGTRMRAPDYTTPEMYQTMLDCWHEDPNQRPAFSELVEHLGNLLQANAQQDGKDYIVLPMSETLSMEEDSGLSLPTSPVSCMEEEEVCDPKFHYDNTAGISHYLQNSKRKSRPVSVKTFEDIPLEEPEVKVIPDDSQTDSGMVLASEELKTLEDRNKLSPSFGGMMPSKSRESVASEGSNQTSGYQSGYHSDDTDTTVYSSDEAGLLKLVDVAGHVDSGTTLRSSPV
Protocol: A kinase reaction mixture was prepared containing 50 mM Tris-HCl pH=8, 10 mM MgCl2, 0.1 mM Na3PO4, 1 mM DTT, 10 μM ATP, 0.025 μM biotinylated peptide substrate and 0.8 μCuries per well ^33P-γ-ATP (2000-3000 Ci/mmol). 70 μL of the kinase reaction mixture was dispensed into each well of a streptavidin coated FlashPlate™ (Cat. # SMP103, NEN, Boston, Mass.). Then 1 μL of test compound stock in 100% DMSO was added to the wells resulting in a final concentration of 1% DMSO in the reaction with a 100 μL final reaction volume. Next, soluble rat tyrosine kinase containing an N-terminal 6×HIS tag was diluted in 50 mM Tris-HCl pH=8.0, 0.1% BSA at a concentration of 5 ng per μL and 30 μL (150 ng enzyme per test well) was added to each well to initiate the reaction. The reaction was incubated for one hour at 30° C. At the end of the 1 h incubation, the reaction was terminated by aspirating the reaction mixture from the plate and washing the wells twice with PBS containing 100 mM EDTA. The PLC1 biotinylated peptide substrate became immobilized on the Flashplate™ and the incorporation of ^33P-γ-ATP was measured by reading the plate on a scintillation counter. Inhibition of the enzymatic activity of the VEGF-R2 kinase was measured by observing a reduced amount of ^33P-γ-ATP incorporated into the immobilized peptide.
as §1

A375 malignant melanoma = assay: Inhibition of cell proliferation (14C-thymidine incorporation), A375; type: cell-based, human; details: Homo sapiens, A-375
Protocol: The ability of a test compound to inhibit the proliferation of cell growth was determined by measuring incorporation of ^14C-labelled thymidine into newly synthesized DNA within the cells. This method was used on cell lines derived from carcinomas originating from several tissues such as HeLa cervical adenocarcinoma (American Type Culture Collection (ATCC), Virginia, Cat. #CCL-2), A375 malignant melanoma (ATCC CRL-1619), and HCT-116 colon carcinoma (CCL-247). In this way the effect of a compound on cell growth of cells with many different phenotypes can be determined. Cells were trypsinized and counted and 3000-8000 cells were added to each well of a 96-well CytoStar tissue culture treated scintillating microplate (Amersham #RPNQ0160) in complete medium in a volume of 100 μl. Cells were incubated for 24 hours in complete medium at 37° C. in an atmosphere containing 5% CO2.
Next, 1 μl of test compound in 100% DMSO was added to the wells of the plate. DMSO only was added to control wells. Cells were incubated for 24 more hours in complete medium at 37° C. in an atmosphere containing 5% CO2. Methyl ^14C-thymidine 56 mCi/mmol (NEN #NEC568 or Amersham #CFA532) was diluted in complete medium and 0.2 uCi/well was added to each well of the CytoStar plate in a volume of 20 ul. The plate was incubated for 24 hours at 37° C. plus 5% CO2 in drug plus ^14C-thymidine. The contents of the plate were discarded into a ^14C radioactive waste container by inverting the plate and the plate was washed twice with 200 μl PBS.
200 μl of PBS was added to each well. The top of the plate was sealed with a transparent plate sealer and a white plate backing sealer (Packard #6005199) was applied to the bottom of the plate. The degree of methyl ^14C-thymidine incorporation was quantified on a Packard Top Count.

`Nc1nc(Nc2ccc(S(=O)(=O)NC(=O)[C@@H](N)CC(=O)O)cc2)nn1C(=O)c1c(F)cccc1F` [Compound 17, (S)-3-amino-4-{4-[5-amino-1-(2,6-difluoro-benzoyl)-1H-[1,2,4]triazol-3-ylamino]-benzenesulfonylamino}-4-oxo-butyric acid] showed an IC50 (CDK1:Cyclin-B) of 0.98 µM, an IC50 (VEGF-R2 kinase) of 1.56 µM and an IC50 (A375 malignant melanoma) greater than 100 µM.
`CCCCC(=O)NS(=O)(=O)c1ccc(Nc2nc(N)n(C(=O)c3c(F)cccc3F)n2)cc1` [Compound 18, 4-[5-amino-1-(2,6-difluoro-benzoyl)-1H-[1,2,4]triazol-3-ylamino]-N-pentanoyl-benzenesulfonamide] was tested, and the IC50 (CDK1:Cyclin-B) was 1.93 µM, the IC50 (VEGF-R2 kinase) was 1.54 µM and the IC50 (A375 malignant melanoma) was greater than 100 µM.
Work on `CCCC(=O)NS(=O)(=O)c1ccc(Nc2nc(N)n(C(=O)c3c(F)cccc3F)n2)cc1` [Compound 19, 4-[5-amino-1-(2,6-difluoro-benzoyl)-1H-[1,2,4]triazol-3-ylamino]-N-butyryl-benzenesulfonamide] yielded an IC50 (CDK1:Cyclin-B) of 0.28 µM, an IC50 (VEGF-R2 kinase) of 0.77 µM and an IC50 (A375 malignant melanoma) of 24.1 µM.
